Target: T1, human V1a receptor (Homo sapiens, UniProt P37288)
T1 construct: expressed in transfected cells; host or cells: HEK293 cells, transiently transfected; membranes prepared
Assay: human V1a receptor binding (3H-Vasopressin SPA, HEK293 membranes)
Conditions: membranes of HEK293 cells transiently transfected with human V1a receptor, Ki by Cheng-Prussoff, read-out: pKi (hV1a) (converted)
Protocol: The human V1a receptor was cloned by RT-PCR from total human liver RNA. The coding sequence was subcloned in an expression vector after sequencing to confirm the identity of the amplified sequence. […] Cell membranes were prepared from HEK293 cells transiently transfected with the expression vector and grown in 20 liter fermenters with the following protocol.
50 g of cells are resuspended in 30 ml freshly prepared ice cold Lysis buffer (50 mM HEPES, 1 mM EDTA, 10 mM magnesium dichloride adjusted to pH=7.4+complete cocktail of protease inhibitor (Roche Diagnostics)). Homogenized with Polytron for 1 min and sonicated on ice for 2×2 minutes at 80% intensity (Vibracell sonicator). The preparation is centrifuged 20 min at 500 g at 4° C., the pellet is discarded and the supernatant centrifuged 1 hour at 43,000 g at 4° C. (19,000 rpm). The pellet is resuspended in 12.5 ml Lysis buffer+12.5 ml sucrose 20% and homogenized using a Polytron for 1-2 min. The protein concentration is determined by the Bradford method and aliquots are stored at −80° C. until use. For binding studies 60 mg Yttrium silicate SPA beads (Amersham®) are mixed with an aliquot of membrane in binding buffer (50 mM Tris, 120 mM sodium chloride, 5 mM potassium chloride, 2 mM calcium dichloride, 10 mM magnesium dichloride) for 15 minutes with mixing. 50 μl of bead/membrane mixture is then added to each well of a 96 well plate, followed by 50 μl of 4 nM 3H-Vasopressin (American Radiolabeled Chemicals). For total binding measurement 100 μl of binding buffer are added to the respective wells, for non-specific binding 100 μl of 8.4 mM cold vasopressin and for compound testing 100 μl of a serial dilution of each compound in 2% dimethyl sulfoxide. The plate is incubated 1 h at room temperature, centrifuged 1 min at 1000 g and counted on a Packard Top-Count. Non-specific binding counts are subtracted from each well and data is normalized to the maximum specific binding set at 100%. To calculate an IC50 the curve is fitted using a non-linear regression model (XLfit) and the Ki is calculated using the Cheng-Prussoff equation.

T1 sequence (P37288 whole entry): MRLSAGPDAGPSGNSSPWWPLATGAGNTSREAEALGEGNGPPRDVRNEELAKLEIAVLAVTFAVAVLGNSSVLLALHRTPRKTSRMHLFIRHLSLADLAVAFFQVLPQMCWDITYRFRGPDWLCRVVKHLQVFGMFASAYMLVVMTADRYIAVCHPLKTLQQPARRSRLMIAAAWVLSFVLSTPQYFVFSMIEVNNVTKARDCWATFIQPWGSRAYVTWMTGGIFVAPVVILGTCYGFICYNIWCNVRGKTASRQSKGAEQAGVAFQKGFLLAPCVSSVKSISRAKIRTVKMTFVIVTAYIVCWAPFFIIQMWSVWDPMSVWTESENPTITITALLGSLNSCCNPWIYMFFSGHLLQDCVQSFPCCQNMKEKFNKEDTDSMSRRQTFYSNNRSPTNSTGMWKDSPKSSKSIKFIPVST

SMILES	Ki
Clc1ccc2c(c1)CNCc1nnc([C@H]3CC[C@H](c4noc5c4CCCC5)CC3)n1-2 [Example 55, trans-8-Chloro-1-[4-(4,5,6,7-tetrahydro-benzo[d]isoxazol-3-yl)-cyclohexyl]-5,6-dihydro-4H-2,3,5,10b-tetraaza-benzo[e]azulene]	5.89 nM
CN1Cc2cc(Cl)ccc2-n2c(nnc2[C@H]2CC[C@H](c3noc4c3CCCC4)CC2)C1 [Example 56, trans-8-Chloro-5-methyl-1-[4-(4,5,6,7-tetrahydro-benzo[d]isoxazol-3-yl)-cyclohexyl]-5,6-dihydro-4H-2,3,5,10b-tetraaza-benzo[e]azulene]	1.58 nM
CC(C)(C)OC(=O)N1Cc2cc(Cl)ccc2-n2c(nnc2[C@H]2CC[C@@H](c3noc4c3CCCC4)CC2)C1 [Example 57, cis-8-Chloro-1-[4-(4,5,6,7-tetrahydro-benzo[d]isoxazol-3-yl)-cyclohexyl]-4H,6H-2,3,5,10b-tetraaza-benzo[e]azulene-5-carboxylic acid tert-butyl ester]	46.8 nM
Clc1ccc2c(c1)CNCc1nnc([C@H]3CC[C@@H](c4noc5c4CCCC5)CC3)n1-2 [Example 58, cis-8-Chloro-1-[4-(4,5,6,7-tetrahydro-benzo[d]isoxazol-3-yl)-cyclohexyl]-5,6-dihydro-4H-2,3,5,10b-tetraaza-benzo[e]azulene]	191 nM
CN1Cc2cc(Cl)ccc2-n2c(nnc2[C@H]2CC[C@@H](c3noc4c3CCCC4)CC2)C1 [Example 59, cis-8-Chloro-5-methyl-1-[4-(4,5,6,7-tetrahydro-benzo[d]isoxazol-3-yl)-cyclohexyl]-5,6-dihydro-4H-2,3,5,10b-tetraaza-benzo[e]azulene]	8.13 nM
CC(C)(C)OC(=O)N1Cc2cc(Cl)ccc2-n2c(nnc2[C@H]2CC[C@H](c3onc4c3CCCC4)CC2)C1 [Example 60, trans-8-Chloro-1-[4-(4,5,6,7-tetrahydro-benzo[c]isoxazol-3-yl)-cyclohexyl]-4H,6H-2,3,5,10b-tetraaza-benzo[e]azulene-5-carboxylic acid tert-butyl ester]	15.5 nM
Clc1ccc2c(c1)CNCc1nnc([C@H]3CC[C@H](c4onc5c4CCCC5)CC3)n1-2 [Example 61, trans-8-Chloro-1-[4-(4,5,6,7-tetrahydro-benzo[c]isoxazol-3-yl)-cyclohexyl]-5,6-dihydro-4H-2,3,5,10b-tetraaza-benzo[e]azulene]	30.2 nM
CN1Cc2cc(Cl)ccc2-n2c(nnc2[C@H]2CC[C@H](c3onc4c3CCCC4)CC2)C1 [Example 62, trans-8-Chloro-5-methyl-1-[4-(4,5,6,7-tetrahydro-benzo[c]isoxazol-3-yl)-cyclohexyl]-5,6-dihydro-4H-2,3,5,10b-tetraaza-benzo[e]azulene]	6.31 nM
Cc1nnc([C@H]2CC[C@H](c3nnc4n3-c3ccc(Cl)cc3CN(C(=O)OC(C)(C)C)C4)CC2)o1 [Example 63, trans-8-Chloro-1-[4-(5-methyl-[1,3,4]oxadiazol-2-yl)-cyclohexyl]-4H,6H-2,3,5,10b-tetraaza-benzo[e]azulene-5-carboxylic acid tert-butyl ester]	1.58 nM
Cc1nnc([C@H]2CC[C@H](c3nnc4n3-c3ccc(Cl)cc3CNC4)CC2)o1 [Example 64, trans-8-Chloro-1-[4-(5-methyl-[1,3,4]oxadiazol-2-yl)-cyclohexyl]-5,6-dihydro-4H-2,3,5,10b-tetraaza-benzo[e]azulene]	204 nM
Cc1nnc([C@H]2CC[C@H](c3nnc4n3-c3ccc(Cl)cc3CN(C)C4)CC2)o1 [Example 65, trans-8-Chloro-5-methyl-1-[4-(5-methyl-[1,3,4]oxadiazol-2-yl)-cyclohexyl]-5,6-dihydro-4H-2,3,5,10b-tetraaza-benzo[e]azulene]	15.8 nM
Cc1noc([C@H]2CC[C@H](c3nnc4n3-c3ccc(Cl)cc3CN(C(=O)OC(C)(C)C)C4)CC2)n1 [Example 66, trans-8-Chloro-1-[4-(3-methyl-[1,2,4]oxadiazol-5-yl)-cyclohexyl]-4H,6H-2,3,5,10b-tetraaza-benzo[e]azulene-5-carboxylic acid tert-butyl ester]	2.88 nM

Source: patent US8513238B2 (Hoffmann-La Roche Inc., priority 2010, dated 2013)
